Results as given in patent publication US11091497B2, “Pyrano[3,4-b]pyrazine kappa opioid receptor ligands for treating addiction, pruritus, pain, and inflammation” (The Rockefeller University, priority 2017, dated 2021).

Biological target: T1, kappa opioid receptor (PathHunter U2OS hOPRK1 membranes) (Homo sapiens, UniProt P41145)
T1 construct: host or cells: U2OS (PathHunter U2OS hOPRK1 β-arrestin cell line)
Test: Tritiated U69,593 binding for KOP-R membranes

T1 sequence (P41145 whole entry): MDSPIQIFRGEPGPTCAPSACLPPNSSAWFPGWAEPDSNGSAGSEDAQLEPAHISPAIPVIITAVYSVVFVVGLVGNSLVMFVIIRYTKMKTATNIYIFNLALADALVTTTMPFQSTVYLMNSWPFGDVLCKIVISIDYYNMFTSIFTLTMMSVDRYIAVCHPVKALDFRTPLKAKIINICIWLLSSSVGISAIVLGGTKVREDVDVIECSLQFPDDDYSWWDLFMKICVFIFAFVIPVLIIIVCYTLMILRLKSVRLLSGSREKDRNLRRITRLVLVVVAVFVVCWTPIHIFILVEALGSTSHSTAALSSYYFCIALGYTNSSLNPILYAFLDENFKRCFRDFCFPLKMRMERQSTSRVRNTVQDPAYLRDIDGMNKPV

SMILES | IC50 [µM]
O=C(Cc1ccc(Cl)c(Cl)c1)N1CCN[C@@H]2COC[C@H](N3CCCC3)[C@H]21 (racemic) [Example 5A22, 1-[8-pyrrolidin-1-yl-2,3,4,4a,5,7,8,8a-octahydropyrano(3,4-b)pyrazin-1-yl]-2-(3,4-dichlorophenyl)ethanone] | 0.065
CN1CCN(C(=O)Cc2ccc(Cl)c(Cl)c2)[C@H]2[C@H]1COC[C@@H]2N1CCCC1 (racemic) [Example 5A23, 1-[4-methyl-8-pyrrolidin-1-yl-3,4a,5,7,8,8a-hexahydro-2H- -pyrano(3,4-b)pyrazin-1-yl]-2-(3,4-dichlorophenyl)ethanone] | 0.103
